Source: US20210401863A1, “TREATMENT AND PREVENTION OF NEISSERIA GONORRHOEAE INFECTION USING CMP-ACTIVATED NONULOSONATE ANALOG COMPOUNDS” (NATIONAL RESEARCH COUNCIL OF CANADA, priority 2015, published 2021)
Entries after “also recorded” stand apart in the source; their conditions may differ. Like-named read-outs stand apart in the source and are kept apart here.

Assays:
N. gonorrhoeae H041 = experiment: BALB/c mouse vaginal colonization model; format: in vivo; conditions: 10 μg intravaginally daily; Premarin treated BALB/c mice
Procedure: FIG. 2: Female BALB/c mice 5-6 weeks of age (Jackson Laboratories) in the diestrus phase of the estrous cycle were started on treatment (that day) with 0.5 mg of Premarin (Pfizer) given subcutaneously on each of three days; −2, 0 and +2 days (before, the day of and after inoculation) to prolong the estrus phase of the cycle and promote susceptibility to N. gonorrhoeae infection. Antibiotics (vancomycin, colistin, neomycin, trimethoprim and streptomycin) that were ineffective against N. gonorrhoeae were also used to reduce competitive microflora. Mice (n=40) were then infected with 10^6 CFU of strain H041. Three groups of mice (n=10/group) were treated with 10 μg intravaginally daily (first dose was administered 30 minutes before the introduction of bacteria) with one of the following CMP-NulOs in normal saline: CMP-Leg5Ac7Ac, CMP-Neu5Ac9Az or CMP-KDN. A fourth group (n=10) was given saline (vehicle control). Vaginal swabs were obtained daily from each animal, serially diluted and plated on chocolate agar containing vancomycin, colistin, neomycin, trimethoprim and streptomycin (VCNTS) to quantify bacterial loads. A. Median time to clearance was estimated using Kaplan-Meier survival curves; the times to clearance were compared between groups using a log-rank test. P<0.0001 for the control versus each of the treatment groups. Time to clearance between each of the treatment groups was similar (P>0.05). B. The mean area under the curve (log10 CFU vs. time) was computed for each mouse to estimate the bacterial burden over time (cumulative infection); the means under the curves were compared between groups using the Kruskal-Wallis nonparametric rank sum test because distributions were skewed or kurtotic. Groups were compared using Dunn's multiple comparison test. ****, P<0.0001; **, P<0.01; *, P<0.05. The differences among the groups that received CMP-NulOs were not significant.
The mouse model experiments and statistical analysis were conducted as described in the art and in U.S. Pat. No. 9,765,106. […]

N. gonorrhoeae F62 ΔlgtD = format: cell-based, Neisseria gonorrhoeae
Procedure: Generally, bacteria (F62 ΔlgtD) grown overnight on chocolate agar plates were suspended in gonococcal liquid media supplemented with IsoVitaleX [29] that contained specified concentrations of the CMP-nonulosonate. Bacteria were then incubated at 37° C. for the period specified in each experiment.
Serum bactericidal assays were performed as follows, similar to methods outlined in [32,33] and in U.S. Pat. No. 9,765,106. Bacteria were harvested from an overnight culture on chocolate agar plates and ˜10^5 CFU of Ng were grown in liquid media containing the concentrations of CMP-NuIO as specified for each experiment. Bacteria were diluted in Morse A and ˜2000 CFU of Ng F62 ΔlgtD were incubated with NHS (concentration specified for each experiment). The final reaction volumes were maintained at 150 μL. Aliquots of 25 μL of reaction mixtures were plated onto chocolate agar in duplicate at the beginning of the assay (t0) and again after incubation at 37° C. for 30 minutes (t30). Survival was calculated as the number of viable colonies at t30 relative to t0.
Addition of a terminal Neu5Ac residue to the LNnT LOS of N. gonorrhoeae that occurs in vivo or following the addition of CMP-Neu5Ac to growth media results in resistance to complement-dependent killing. We next determined the effects of LNnT incorporation of KDN on the ability of N. gonorrhoeae F62 ΔlgtD to resist complement-dependent killing by normal human sera at concentrations of 3.3% or 10%. Bacteria were grown either in media alone, or media supplemented with 20 μg/mL of CMP-Neu5Ac or CMP-KDN. In addition, CMP-NulO competition experiments were also performed with CMP-Neu5Ac, CMP-Leg5Ac7Ac and CMP-KDN at CMP-NulO concentrations of either 20 μg/mL or 2 μg/mL as indicated, where the second CMP-NulO was added 15 minutes after the first (Table 1 below). To note, these CMP-NulO competition experiments are a method to examine the ability of select CMP-NulOs to counter the enhanced serum resistance due to CMP-Neu5Ac addition, providing information on their therapeutic potential (as any potential therapeutic will be required to compete with CMP-Neu5Ac in vivo).

Nc1ccn([C@@H]2O[C@H](COP(=O)(O)O[C@@]3(C(=O)O)CC(O)[C@@H](O)C([C@H](O)[C@H](O)CO)O3)C(O)C2O)c(=O)n1 (stereo partly drawn) [CMP-KDN, cytidine 5′-monophospho-3-deoxy-D-glycero-D-galacto-nonulosonic acid]
attenuation of N. gonorrhoeae H041 infection (N. gonorrhoeae H041): some efficacy; also recorded: significantly attenuated; also recorded: just as efficacious in an animal model of colonization | % survival in 3.3% serum (N. gonorrhoeae F62 ΔlgtD; CMP-Neu5Ac (20 μg/mL) first, labelled CMP-NulO (20 μg/mL) added 15 minutes later, 3.3% serum): 107% | % survival in 10% serum (N. gonorrhoeae F62 ΔlgtD; CMP-Neu5Ac (20 μg/mL) first, labelled CMP-NulO (20 μg/mL) added 15 minutes later, 10% serum): 108% | serum resistance (in words) (N. gonorrhoeae F62 ΔlgtD; CMP-NulO alone, 3.3% serum): complete serum resistance was observed | serum sensitivity (in words) (N. gonorrhoeae F62 ΔlgtD; CMP-NulO alone, 10% serum): serum sensitivity was observed | countering of serum resistance mediated by CMP-Neu5Ac (competition, in words) (N. gonorrhoeae F62 ΔlgtD; CMP-NulO competition, second CMP-NulO 15 minutes after the first, 3.3% and 10% serum): could only counter CMP-Neu5Ac induced serum resistance if it was provided before CMP-Neu5Ac | % survival in 3.3% serum (N. gonorrhoeae F62 ΔlgtD; Table 1, CMP-NulO 20 μg/mL alone, 3.3% serum): 110% | % survival in 10% serum (N. gonorrhoeae F62 ΔlgtD; Table 1, CMP-NulO 20 μg/mL alone, 10% serum): 11% | % survival in 3.3% serum (N. gonorrhoeae F62 ΔlgtD; labelled CMP-NulO (20 μg/mL) first, CMP-Neu5Ac (2 μg/mL) added 15 minutes later, 3.3% serum): 107% | % survival in 10% serum (N. gonorrhoeae F62 ΔlgtD; labelled CMP-NulO (20 μg/mL) first, CMP-Neu5Ac (2 μg/mL) added 15 minutes later, 10% serum): 10% | % survival in 3.3% serum (N. gonorrhoeae F62 ΔlgtD; labelled CMP-NulO (20 μg/mL) first, CMP-Neu5Ac (20 μg/mL) added 15 minutes later, 3.3% serum): 107% | % survival in 10% serum (N. gonorrhoeae F62 ΔlgtD; labelled CMP-NulO (20 μg/mL) first, CMP-Neu5Ac (20 μg/mL) added 15 minutes later, 10% serum): 11%
